According to PubChem BioAssay (NCI):
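Grown in 96-well plates, cells were treated for 48 hours with each compound at five concentrations. Insufficient inhibition: endpoint recorded as highest concentration tested. GI50 = concentration required for 50% inhibition of growth. TGI is the concentration that stops growth completely.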

Legend:
Assay in all cases: inhibition of tumour cell growth, NCI panel, 48 h
UACC-257 melanoma = tested on: UACC-257 melanoma
CAKI-1 renal = tested on: CAKI-1 renal
MOLT-4 leukemia = tested on: MOLT-4 leukemia
LOX IMVI melanoma = tested on: LOX IMVI melanoma
SR leukemia = tested on: SR leukemia
K-562 leukemia = tested on: K-562 leukemia
SN12C renal = tested on: SN12C renal
MALME-3M melanoma = tested on: MALME-3M melanoma
MCF7 breast = tested on: MCF7 breast
COLO 205 colon = tested on: COLO 205 colon

SMILES | TGI (UACC-257 melanoma) [µM] | TGI (CAKI-1 renal) [µM] | TGI (MOLT-4 leukemia) [µM] | TGI (LOX IMVI melanoma) [µM] | TGI (SR leukemia) [µM] | TGI (K-562 leukemia) [µM] | TGI (SN12C renal) [µM] | TGI (MALME-3M melanoma) [µM] | TGI (MCF7 breast) [µM] | TGI (COLO 205 colon) [µM] | GI50 (UACC-257 melanoma) [µM] | GI50 (MCF7 breast) [µM] | GI50 (CAKI-1 renal) [µM] | GI50 (SN12C renal) [µM]
Cc1ccc(C2(c3ccc(C)c(O)c3C)CCN(C)CC2)c(C)c1O | 35.3 | > 100 | > 100 | > 100 | > 100 | > 100 | > 100 | > 100 | – | – | – | – | – | –
CC(C)C[C@H](NC(=O)[C@H](CCc1ccccc1)NC(=O)c1ccc2ccccc2n1)B(O)O | 0.0676 | 4.73 | 4.76 | 0.247 | – | > 100 | 0.486 | – | 4.2 | 5.18 | – | – | – | –
CCCN1C(=O)/C(=C(/O)C(=O)OCC)C(c2ccc(OC)c(OC)c2)C1=O (stereo not drawn) | > 100 | > 100 | > 100 | > 100 | – | > 100 | > 100 | > 100 | > 100 | > 100 | – | – | – | –
CC12CCC(C1)C(C)(C)C2OC(=O)c1ccccc1C(=O)O (stereo not drawn) | > 100 | > 100 | > 100 | > 100 | – | > 100 | > 100 | > 100 | > 100 | > 100 | – | – | – | –
O=C(NNCc1ccccc1O)c1ccccc1O | > 100 | > 100 | > 100 | > 100 | – | > 100 | > 100 | > 100 | 80.3 | > 100 | – | – | – | –
CN1CCN(c2c(O)c3c(c(O)c2Cl)C(=O)C=CC3=O)CC1 | 1.58 | 1.56 | – | 1.66 | – | 0.659 | 2.1 | 0.448 | 0.576 | 0.38 | – | – | – | –
Cc1ccc(Nc2ccc(Nc3ccc(C)cc3S(=O)(=O)O)c3c2C(=O)c2ccccc2C3=O)c(S(=O)(=O)O)c1 | > 100 | > 100 | > 100 | – | > 100 | > 100 | > 100 | > 100 | – | > 100 | – | – | – | –
CC(=O)OC1C(O)C(C)OC(OC(=O)C2CCC3C(C2)OC2(CC(OC(=O)/C=C/c4ccccc4)C(C)CO2)C32CO2)C1OC1OC(C)C(O)C(O)C1O (stereo not drawn) | 0.0726 | 9.74 | 5.05 | 0.362 | – | 2.29 | 0.833 | 0.093 | 0.0917 | 0.0569 | – | – | – | –
Clc1ccc(-c2nn3c(C45CC6CC(CC(C6)C4)C5)nnc3s2)cc1 | – | > 100 | > 100 | > 100 | > 100 | > 100 | > 100 | > 100 | – | > 100 | – | – | – | –
O=C(NC(CO)CO)c1ccc2cc(C(=O)N3CC(CCl)c4ccc([N+](=O)[O-])cc43)[nH]c2c1 (stereo not drawn) | > 100 | > 100 | > 100 | > 100 | – | > 100 | > 100 | > 100 | > 100 | > 100 | – | – | – | –
CCCC1C(C#N)(C#N)C(C#N)=C(N)C1(C)C(C)=O (stereo not drawn) | > 100 | 21.6 | > 100 | > 100 | – | > 100 | > 100 | > 100 | > 100 | > 100 | – | – | – | –
CCOC(=O)/C=C1/Nc2cc(F)c(F)cc2NC1=O | > 100 | > 100 | > 100 | > 100 | – | > 100 | > 100 | > 100 | > 100 | > 100 | – | – | – | –
CCCN(CCC)c1c([N+](=O)[O-])cc(C(=O)N(C)C)cc1[N+](=O)[O-] | > 100 | > 100 | > 100 | – | – | > 100 | > 100 | > 100 | – | > 100 | – | – | – | –
Cc1oc2c(C)c3oc(=O)cc(C)c3cc2c1CN | > 100 | – | > 100 | 41.9 | – | > 100 | > 100 | 86 | – | > 100 | – | – | – | –
CC(C)(Oc1ccc(C(=O)c2ccc(Cl)cc2)cc1Cl)C(=O)N1CCN(c2ccccc2)CC1 | > 100 | – | > 100 | > 100 | > 100 | > 100 | – | > 100 | – | – | – | – | – | –
NC(CNc1ccc(O)cc1)C(=O)O (stereo not drawn) | > 100 | > 100 | > 100 | > 100 | > 100 | > 100 | > 100 | > 100 | – | > 100 | – | – | – | –
N#CI1OC(C(F)(F)F)(C(F)(F)F)c2ccccc21 | 51.8 | 28 | – | 43.3 | – | > 100 | 68 | – | 42.3 | 26.8 | – | – | – | –
CC1=CC(=O)/C(=C/N2CCNC2=S)C(=O)O1 | > 100 | > 100 | > 100 | > 100 | – | > 100 | > 100 | – | > 100 | > 100 | – | – | – | –
O=C(CCC(=O)OCC1OC(O)(CC2OC(CO)C(O)C(O)C2O)C(O)C1O)OCc1ccccc1 (stereo not drawn) | > 100 | > 100 | – | > 100 | – | > 100 | > 100 | > 100 | > 100 | > 100 | – | – | – | –
CCCCNCC(O)c1cc(-c2ccc(C(F)(F)F)cc2)nc(-c2ccc(C(F)(F)F)cc2)c1 (stereo not drawn) | 3.57 | 3.41 | – | – | – | – | 3.55 | – | 3.54 | – | 1.83 | 1.79 | 1.71 | 1.9
